From patent US12466822B2, “Heterocyclic compounds as immunomodulators” (Incyte Corporation, priority 2016, dated 2025) come the findings set out here.

For orientation: IC50 means the midpoint of a concentration-inhibition curve.

This assay deals with T1, PD-1/PD-L1 protein/protein interaction (recombinant human PD-L1 protein (19-238), recombinant human PD-1 protein (25-167)) (Homo sapiens, UniProt Q9NZQ7).
T1 construct: Recombinant human PD-L1 protein (19-238) with a His-tag at the C-terminus; purchased AcroBiosystems PD1-H5229 (PD-L1-His); PD1-H5257 (PD-1-Fc)
T1 sequence (Q9NZQ7 19-238): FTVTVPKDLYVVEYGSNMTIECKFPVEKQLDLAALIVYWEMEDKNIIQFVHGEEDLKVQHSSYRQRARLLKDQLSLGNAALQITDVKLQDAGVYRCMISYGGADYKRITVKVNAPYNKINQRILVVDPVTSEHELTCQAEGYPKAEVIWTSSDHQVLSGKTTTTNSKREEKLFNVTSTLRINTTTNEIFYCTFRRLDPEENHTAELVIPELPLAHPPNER
The assay can be described thus: PD-1/PD-L1 Homogeneous Time-Resolved Fluorescence (HTRF) Binding Assay. As to conditions: 25° C., PBS buffer (pH 7.4), 40 minutes preincubation with inhibitors. In short, it runs like this:
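HTRF read-out (665/620 nm) after 60 min at 25 °C with 1 nM Eu anti-human IgG and 20 nM APC anti-His. Beforehand, inhibitors were preincubated 40 min with Fc-PD-1 (25-167, […] as listed) and His-PD-L1 (19-238, 10 nM) in PBS pH 7.4 with Tween-20, BSA, 1% DMSO; IC50 from log-concentration curve.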
(Time-resolved FRET reads energy transfer from a long-lived donor to a nearby acceptor.)
On to `Cc1c(Nc2nccc3cc(CN4CC[C@@H](O)C4)cnc23)cccc1-c1cccc(NC(=O)c2nc3c(n2C)CCN(C[C@H]2CC[C@H](C(=O)O)CC2)C3)c1Cl` [Example 47, trans-4-((2-(2-chloro-3′-(3-(((R)-3-hydroxypyrrolidin-1-yl)methyl)-1,7-naphthyridin-8-ylamino)-2′-methylbiphenyl-3-ylcarbamoyl)-1-methyl-6,7-dihydro-1H-imidazo[4,5-c]pyridin-5(4H)-yl)methyl)cyclohexanecarboxylic acid], for which the IC50 is at most 0.01 µM.

`Cc1c(Nc2nccc3cc(CN4CC[C@@H](O)C4)cnc23)cccc1-c1cccc(NC(=O)c2nc3c(n2C)CCN(C[C@H]2CC[C@@H](C(=O)O)CC2)C3)c1Cl` [Example 48, cis-4-((2-(2-chloro-3′-(3-(((R)-3-hydroxypyrrolidin-1-yl)methyl)-1,7-naphthyridin-8-ylamino)-2′-methylbiphenyl-3-ylcarbamoyl)-1-methyl-6,7-dihydro-1H-imidazo[4,5-c]pyridin-5(4H)-yl)methyl)cyclohexanecarboxylic acid]: the IC50 is at most 0.01 µM.

Turning to `Cc1c(Nc2nccc3cc(CN4CCCC4)cnc23)cccc1-c1cccc(NC(=O)c2nc3c(n2C)CCN(C[C@H]2CC[C@@H](C(=O)O)CC2)C3)c1Cl` [Example 49, cis-4-((2-(2-chloro-2′-methyl-3′-(3-(pyrrolidin-1-ylmethyl)-1,7-naphthyridin-8-ylamino)biphenyl-3-ylcarbamoyl)-1-methyl-6,7-dihydro-1H-imidazo[4,5-c]pyridin-5(4H)-yl)methyl)cyclohexanecarboxylic acid], the IC50 is at most 0.01 µM.

Consider `Cc1c(Nc2nccc3cc(CN[C@@H](C)CO)cnc23)cccc1-c1cccc(NC(=O)c2nc3c(n2C)CCN(C[C@H]2CC[C@H](C(=O)O)CC2)C3)c1Cl` [Example 50, trans-4-((2-(2-chloro-3′-(3-(((S)-1-hydroxypropan-2-ylamino)methyl)-1,7-naphthyridin-8-ylamino)-2′-methylbiphenyl-3-ylcarbamoyl)-1-methyl-6,7-dihydro-1H-imidazo[4,5-c]pyridin-5(4H)-yl)methyl)cyclohexanecarboxylic acid], for which the IC50 was at most 0.01 µM.

As for `Cc1c(Nc2nccc3cc(CN[C@H]4CCC[C@@H]4O)cnc23)cccc1-c1cccc(NC(=O)c2nc3c(n2C)CCN(C[C@H]2CC[C@H](C(=O)O)CC2)C3)c1Cl` [Example 51, trans-4-((2-(2-chloro-3′-(3-(((1S,2S)-2-hydroxycyclopentylamino)methyl)-1,7-naphthyridin-8-ylamino)-2′-methylbiphenyl-3-ylcarbamoyl)-1-methyl-6,7-dihydro-1H-imidazo[4,5-c]pyridin-5(4H)-yl)methyl)cyclohexanecarboxylic acid], the IC50 was at most 0.01 µM.

As for `Cc1c(Nc2nccc3cc(CN4CC[C@@H](O)C4)cnc23)cccc1-c1cccc(NC(=O)c2nc3c(n2C)CCN(C(C)CC(=O)O)C3)c1Cl` (stereo partly drawn) [Example 54, 3-(2-(2-chloro-3′-(3-(((R)-3-hydroxypyrrolidin-1-yl)methyl)-1,7-naphthyridin-8-ylamino)-2′-methylbiphenyl-3-ylcarbamoyl)-1-methyl-6,7-dihydro-1H-imidazo[4,5-c]pyridin-5(4H)-yl)butanoic acid], the IC50 is at most 0.01 µM.

Regarding `Cc1c(Nc2nccc3cc(CN4CC[C@H](O)C4)cnc23)cccc1-c1cccc(NC(=O)c2nc3c(n2C)CCN(C[C@H]2CC[C@@H](C(=O)O)CC2)C3)c1Cl` [Example 55, cis 4-((2-(2-chloro-3′-(3-(((S)-3-hydroxypyrrolidin-1-yl)methyl)-1,7-naphthyridin-8-ylamino)-2′-methylbiphenyl-3-ylcarbamoyl)-1-methyl-6,7-dihydro-1H-imidazo[4,5-c]pyridin-5(4H)-yl)methyl)cyclohexanecarboxylic acid], the IC50 was at most 0.01 µM.

Turning to `Cc1c(Nc2nccc3cc(CN4CC[C@@](C)(O)C4)cnc23)cccc1-c1cccc(NC(=O)c2nc3c(n2C)CCN(C[C@H]2CC[C@@H](C(=O)O)CC2)C3)c1Cl` [Example 56, cis 4-((2-(2-chloro-3′-(3-(((R)-3-hydroxy-3-methylpyrrolidin-1-yl)methyl)-1,7-naphthyridin-8-ylamino)-2′-methylbiphenyl-3-ylcarbamoyl)-1-methyl-6,7-dihydro-1H-imidazo[4,5-c]pyridin-5(4H)-yl)methyl)cyclohexanecarboxylic acid], the IC50 was at most 0.01 µM.

On to `Cc1c(Nc2nccc3cc(CN4CC[C@@](C)(O)C4)cnc23)cccc1-c1cccc(NC(=O)c2nc3c(n2C)CCN(C2CCC(C(=O)O)CC2)C3)c1Cl` (stereo partly drawn) [Example 57, (R)-4-(2-(2-chloro-3′-(3-((3-hydroxy-3-methylpyrrolidin-1-yl)methyl)-1,7-naphthyridin-8-ylamino)-2′-methylbiphenyl-3-ylcarbamoyl)-1-methyl-6,7-dihydro-1H-imidazo[4,5-c]pyridin-5(4H)-yl)cyclohexanecarboxylic acid], for which the 50% inhibitory concentration (IC50) was at most 0.01 µM.

With `Cc1c(Nc2nccc3cc(CN4CC[C@](C)(O)C4)cnc23)cccc1-c1cccc(NC(=O)c2nc3c(n2C)CCN(C2CCC(C(=O)O)CC2)C3)c1Cl` (stereo partly drawn) [Example 58, (S)-4-(2-(2-chloro-3′-(3-((3-hydroxy-3-methylpyrrolidin-1-yl)methyl)-1,7-naphthyridin-8-ylamino)-2′-methylbiphenyl-3-ylcarbamoyl)-1-methyl-6,7-dihydro-1H-imidazo[4,5-c]pyridin-5(4H)-yl)cyclohexanecarboxylic acid], the IC50 was at most 0.01 µM.

As for `Cc1c(Nc2nccc3cc(CN[C@H](C)CO)cnc23)cccc1-c1cccc(NC(=O)c2nc3c(n2C)CCN(CC[C@H]2CC[C@H](C(=O)O)CC2)C3)c1Cl` [Example 59, trans 4-(2-(2-(2-chloro-3′-(3-(((R)-1-hydroxypropan-2-ylamino)methyl)-1,7-naphthyridin-8-ylamino)-2′-methylbiphenyl-3-ylcarbamoyl)-1-methyl-6,7-dihydro-1H-imidazo[4,5-c]pyridin-5(4H)-yl)ethyl)cyclohexanecarboxylic acid], the IC50 is at most 0.01 µM.

In the case of `Cc1c(Nc2nccc3cc(CN[C@@H](C)CO)cnc23)cccc1-c1cccc(NC(=O)c2nc3c(n2C)CCN(CC[C@H]2CC[C@H](C(=O)O)CC2)C3)c1Cl` [Example 60, trans 4-(2-(2-(2-chloro-3′-(3-(((S)-1-hydroxypropan-2-ylamino)methyl)-1,7-naphthyridin-8-ylamino)-2′-methylbiphenyl-3-ylcarbamoyl)-1-methyl-6,7-dihydro-1H-imidazo[4,5-c]pyridin-5(4H)-yl)ethyl)cyclohexanecarboxylic acid], the IC50 was at most 0.01 µM.

Consider `Cc1c(Nc2nccc3cc(CN4CC[C@@](C)(O)C4)cnc23)cccc1-c1cccc(NC(=O)c2nc3c(n2C)CCN(CC[C@H]2CC[C@H](C(=O)O)CC2)C3)c1Cl` [Example 61, trans-4-(2-(2-(2-chloro-3′-(3-(((R)-3-hydroxy-3-methylpyrrolidin-1-yl)methyl)-1,7-naphthyridin-8-ylamino)-2′-methylbiphenyl-3-ylcarbamoyl)-1-methyl-6,7-dihydro-1H-imidazo[4,5-c]pyridin-5(4H)-yl)ethyl)cyclohexanecarboxylic acid], for which the IC50 is at most 0.01 µM.

In the case of `Cc1c(NC(=O)c2nc3c(n2C)CCN(CC[C@H]2CC[C@H](C(=O)O)CC2)C3)cccc1-c1cccc(Nc2nccc3cc(CN4CC[C@@H](O)C4)cnc23)c1C` [Example 63, trans-4-(2-(2-(3′-(3-(((R)-3-hydroxypyrrolidin-1-yl)methyl)-1,7-naphthyridin-8-ylamino)-2,2′-dimethylbiphenyl-3-ylcarbamoyl)-1-methyl-6,7-dihydro-1H-imidazo[4,5-c]pyridin-5(4H)-yl)ethyl)cyclohexanecarboxylic acid], the IC50 is at most 0.01 µM.

Regarding `Cn1c(C(=O)Nc2cccc(-c3cccc(Nc4nccc5cc(CN6CC[C@@H](O)C6)cnc45)c3Cl)c2Cl)nc2c1CCN(CC[C@H]1CC[C@H](C(=O)O)CC1)C2` [Example 65, Trans-4-(2-(2-(2,2′-dichloro-3′-(3-(((R)-3-hydroxypyrrolidin-1-yl)methyl)-1,7-naphthyridin-8-ylamino)biphenyl-3-ylcarbamoyl)-1-methyl-6,7-dihydro-1H-imidazo[4,5-c]pyridin-5(4H)-yl)ethyl)cyclohexanecarboxylic acid], the IC50 was at most 0.01 µM.

As to `Cc1c(NC(=O)c2nc3c(n2C)CCN(CC[C@H]2CC[C@H](C(=O)O)CC2)C3)cccc1-c1cccc(Nc2nccc3cc(CN4CC[C@@H](O)C4)cnc23)c1Cl` [Example 66, trans 4-(2-(2-(2′-chloro-3′-(3-(((R)-3-hydroxypyrrolidin-1-yl)methyl)-1,7-naphthyridin-8-ylamino)-2-methylbiphenyl-3-ylcarbamoyl)-1-methyl-6,7-dihydro-1H-imidazo[4,5-c]pyridin-5(4H)-yl)ethyl)cyclohexanecarboxylic acid], the IC50 is at most 0.01 µM.

Regarding `Cc1c(Nc2ncnc3cc(CN4CC[C@@](C)(C(=O)O)C4)cnc23)cccc1-c1cccc(NC(=O)c2nc3c(n2C)CCN(C)C3)c1Cl` [Example 67, (R)-1-((4-(2′-chloro-3′-(1,5-dimethyl-4,5,6,7-tetrahydro-1H-imidazo[4,5-c]pyridine-2-carboxamido)-2-methylbiphenyl-3-ylamino)pyrido[3,2-d]pyrimidin-7-yl)methyl)-3-methylpyrrolidine-3-carboxylic acid], the IC50 is at most 0.01 µM.

Turning to `Cc1c(Nc2ncnc3cc(CN4CC[C@@H](O)C4)cnc23)cccc1-c1cccc(NC(=O)c2nc3c(n2C)CCN(C[C@H]2CC[C@H](C(=O)O)CC2)C3)c1Cl` [Example 69, trans 4-((2-(2-chloro-3′-(7-(((R)-3-hydroxypyrrolidin-1-yl)methyl)pyrido[3,2-d]pyrimidin-4-ylamino)-2′-methylbiphenyl-3-ylcarbamoyl)-1-methyl-6,7-dihydro-1H-imidazo[4,5-c]pyridin-5(4H)-yl)methyl)cyclohexanecarboxylic acid], the IC50 was at most 0.01 µM.
